Assay [1] is described as follows: Antiproliferative activity against human alpha-2 cells after 48 hrs by MTT assay. Type of assay: functional, cell-based.
In assay [2] the test system is DU-145. The experiment in a line: Induction of morphological changes in human DU145 cells assessed as decrease in cell size at 20 uM after 12 hrs by inverted microscopy. It counts as functional, cell-based.
The nature of assay [3]: Cytotoxicity against human IOSE-144 cells after 48 hrs by MTT assay. Type of assay: cell-based. The following applies: IOSE-144, 48 h. (Formazan colour is commonly taken as a measure of viable cells.)
A short description of assay [4]: Antiproliferative activity against human DU145 cells after 48 hrs by MTT assay. It counts as functional, cell-based. The following applies: DU-145, 48 h.
Assay [5] in a line: Antiproliferative activity against human BGC823 cells after 48 hrs by MTT assay. Type of assay: functional, cell-based. The conditions noted are these: BGC-823, 48 h.
The nature of assay [6]: Antiproliferative activity against human PC3 cells after 48 hrs by MTT assay. Type of assay: functional, cell-based. The following applies: PC-3, 48 h.
The test system of assay [7] is DU-145. The experiment in a line: Induction of apoptosis in human DU145 cells assessed as formation of apoptotic bodies at 20 uM after 12 hrs by DAPI staining-based fluorescence microscopy. Type of assay: functional, cell-based.
For assay [8], the system named is DU-145. The experiment in a line: Induction of morphological changes in human DU145 cells assessed as spherical cells at 20 uM after 12 hrs by inverted microscopy. It counts as functional, cell-based.
For the next assay, the system named is MDA-MB-231. The experiment in a line: Antiproliferative activity against human MDA-MB-231 cells after 48 hrs by MTT assay. It counts as functional, cell-based. The conditions noted are these: MDA-MB-231, 48 h.
For assay [9], the system named is DU-145. The experiment in a line: Induction of cell cycle arrest in human DU145 cells assessed as accumulation at Sub G1 phase at 20 uM after 12 hrs by propidium iodide staining-based flow cytometry (reference value: 1.57 to 1.59%). Type of assay: functional. For orientation: A flow cytometer gives signals particle by particle.
Assay [10] concerns DU-145. The experiment in a line: Induction of morphological changes in human DU145 cells assessed as formation of bubble-shaped regions at 20 uM after 12 hrs by inverted microscopy. It counts as functional, cell-based.
The test system of assay [11] is DU-145. The experiment in a line: Induction of cell cycle arrest in human DU145 cells assessed as accumulation at Sub G1 phase at 20 uM after 3 hrs by propidium iodide staining-based flow cytometry (reference value: 1.57 to 1.59%). It counts as functional.
Assay [12] relates to DU-145. The experiment in a line: Induction of cell cycle arrest in human DU145 cells assessed as accumulation at Sub G1 phase at 20 uM after 6 hrs by propidium iodide staining-based flow cytometry (reference value: 1.57 to 1.59%). It counts as functional.
In assay [13] the test system is DU-145. The experiment in a line: Induction of apoptosis in human DU145 cells assessed as chromatin nucleus condensation at 20 uM after 12 hrs by DAPI staining-based fluorescence microscopy. It counts as functional, cell-based.
The test system of assay [14] is DU-145. The experiment in a line: Induction of cell cycle arrest in human DU145 cells assessed as accumulation at Sub G1 phase at 20 uM after 18 hrs by propidium iodide staining-based flow cytometry (reference value: 1.57 to 1.59%). It counts as functional.

Calls of active or inactive are those of the source. The rule behind the calls is not given here. A value given as a limit tells only on which side of the number the result lay.

Turning to `CC(C)(O)CCC[C@@](C)(O)[C@H]1CC[C@]2(C)[C@@H]1[C@H](O)C[C@@H]1[C@@]3(C)CC[C@H](OC(=O)[C@@H](N)CCCNC(=N)N)C(C)(C)[C@@H]3CC[C@]12C`, the IC50 (as a rule, the concentration needed to halve the response being measured) was 7.1 µM in assay [1]; more than 100 µM in [3]; 5.5 µM in assay [4]; 4.6 µM in [5]; 6.1 µM in [6]; 4.2 µM with MDA-MB-231. For the same compound, the outcome in the assay on DU-145 [2], with DU-145 [7], in the assay with DU-145 [8], in the assay with DU-145 [10] and with DU-145 [13] was Active. For the same compound, the Activity in the assay with DU-145 [9] stood at 34.07%; in the assay with DU-145 [11] it was 7.37%; with DU-145 [12] it was 16.29%.
Take `CC(C)(O)CCC[C@@](C)(O)[C@H]1CC[C@]2(C)[C@@H]1[C@H](O)C[C@@H]1[C@@]3(C)CC[C@H](OC(=O)[C@H](CCC(=O)OCc4ccccc4)NC(=O)OC(C)(C)C)C(C)(C)[C@@H]3CC[C@]12C`: the IC50 in assay [1] is 28 µM; in assay [3], more than 100 µM; in assay [4] it was 54 µM; in assay [5], 23 µM; in assay [6], 29 µM; in the assay with MDA-MB-231, 19 µM.
Regarding `CC[C@H](C)[C@H](NC(=O)OC(C)(C)C)C(=O)O[C@@H]1C[C@@H]2[C@@]3(C)CC[C@H](O)C(C)(C)[C@@H]3CC[C@@]2(C)[C@]2(C)CC[C@H]([C@](C)(O)CCCC(C)(C)O)[C@@H]12`, the IC50 is 81 µM in assay [1]; more than 100 µM in assay [3]; more than 100 µM in [4]; more than 100 µM in assay [5]; more than 100 µM in [6]; more than 100 µM in the assay on MDA-MB-231.
`CC(C)(O)CCC[C@@](C)(O)[C@H]1CC[C@]2(C)[C@@H]1[C@H](O)C[C@@H]1[C@@]3(C)CC[C@H](OC(=O)[C@@H](N)CCC(=O)O)C(C)(C)[C@@H]3CC[C@]12C`: the IC50 was 6.2 µM in assay [1]; more than 100 µM in assay [3]; 6.5 µM in assay [4]; 6.9 µM in assay [5]; 9.9 µM in [6]; 4.2 µM in the assay on MDA-MB-231. Moreover, the result in the assay on DU-145 [2], in the assay on DU-145 [7], with DU-145 [8], in the assay on DU-145 [10] and in the assay on DU-145 [13] was Active. For the same compound, the Activity in the assay on DU-145 [9] stood at 13.39%; in the assay with DU-145 [14], 30.53%; with DU-145 [12], 9.81%.
Take `CC(C)C[C@H](NC(=O)OC(C)(C)C)C(=O)O[C@H]1CC[C@]2(C)[C@H]3C[C@@H](O)[C@@H]4[C@@H]([C@](C)(O)CCCC(C)(C)O)CC[C@@]4(C)[C@]3(C)CC[C@H]2C1(C)C`: the IC50 in assay [1] is 32 µM; in assay [3] it was more than 100 µM; in assay [4], 26 µM; in assay [5] it was 24 µM; in assay [6], 41 µM; in the assay on MDA-MB-231 it was 17 µM.
Consider `CC(C)(O)CCC[C@@](C)(O)[C@H]1CC[C@]2(C)[C@@H]1[C@H](O)C[C@@H]1[C@@]3(C)CC[C@H](OC(=O)[C@H](CCCNC(=N)N)NC(=O)OC(C)(C)C)C(C)(C)[C@@H]3CC[C@]12C`, for which the IC50 in [1] was 13 µM; in assay [3] it was more than 100 µM; in assay [4], 11 µM; in [5], 12 µM; in assay [6], 12 µM; in the assay on MDA-MB-231, 8 µM.
In the case of `CC(C)(O)CCC[C@@](C)(O)[C@H]1CC[C@]2(C)[C@@H]1[C@H](O)C[C@@H]1[C@@]3(C)CC[C@H](OC(=O)[C@H](CO)NC(=O)OC(C)(C)C)C(C)(C)[C@@H]3CC[C@]12C`, the half-inhibitory concentration (IC50) is 24 µM in assay [1]; more than 100 µM in assay [3]; 25 µM in [4]; 21 µM in assay [5]; 25 µM in assay [6]; 18 µM in the assay on MDA-MB-231.
Take `C[C@H](NC(=O)OC(C)(C)C)C(=O)O[C@H]1CC[C@]2(C)[C@H]3C[C@@H](O)[C@@H]4[C@@H]([C@](C)(O)CCCC(C)(C)O)CC[C@@]4(C)[C@]3(C)CC[C@H]2C1(C)C`: the IC50 in assay [1] is 24 µM; in assay [3], more than 100 µM; in assay [4] it was 23 µM; in [5], 18 µM; in assay [6], 22 µM; with MDA-MB-231, 17 µM.

The values are drawn from ChEMBL document CHEMBL3769368, “Semi-synthesis and anti-tumor evaluation of novel 25-hydroxyprotopanaxadiol derivatives as apoptosis inducing agents” (Medchemcomm, 2015).
